Source: patent US8304601B2, “Mouse model for eye disease” (priority 2007, dated 2012)
Structures can show the parent of a compound that is named as a salt.

Tests used:
Assay type in all cases: in vivo
Vav2/3^ko mouse [1] = assay: Intraocular pressure after Y-27632 eye drop, Test Example 3; settings: 7-week old Vav2/3^ko; 3 μL of 1 mM/PBS solution to eye; one hour after administration
Method: (§1) For No. 20 of each of the 7-week old Vav2/3^ko, Vav2^ko and Vav3^ko, intraocular pressure was measured between 10 o'clock in the morning and noon by using a Tonometer and then 3 μL of 1 mM/PBS solution of Y-27632 (Calbiochem), which is an inhibitor for Rho-associated protein kinase and has been reported to have an activity of reducing intraocular pressure by acting on an outflow tract for aqueous humor, or 3 μL of PBS solution was applied to an eye. One hour after the administration, the intraocular pressure was measured again.

Vav2^ko mouse [2] = assay: as above; settings: 7-week old Vav2^ko; 3 μL of 1 mM/PBS solution to eye; one hour after administration
Method: as §1

Vav3^ko mouse = assay: as above; settings: 7-week old Vav3^ko; 3 μL of 1 mM/PBS solution to eye; one hour after administration
Method: as §1

Vav2/3^ko mouse [3] = assay: Intraocular pressure after eye-drop administration, Example 5; settings: for Ratio of effect on intraocular pressure: Vav2/3^ko
Method: (§2) For the No. 20 animal of each of the 7-week old Vav2/3^ko and Vav2^ko, intraocular pressure was measured between 10 o'clock in the morning and noon by using a Tonometer. Then, 3 μL solution containing 0.02% benzalkonium chloride, 0.5% NaH2PO4, 0.6% Na2HPO4, 0.4% sodium chloride and 0.005% Latanoprost (manufactured by Cayman Chemical), or solution having the same composition except that no latanoplast was contained was applied to an eye of the animal based on a blind testing method. Three hours later, the intraocular pressure was measured again. In addition, to Vav2/3^ko, 3 μL eye-drop solution containing timolol maleate (Trade name; Timoptol, Merck Company, USA, 0.5% solution), or 3 μL eye-drop solution containing dorzolamide hydrochloride (Trade name; Trusopt, Merck Company, USA, 1% solution), both having a different mechanism for reducing intraocular pressure compared to latanoprost, was applied instead of the solution containing latanoprost as described above. Two hours after the application, change in the intraocular pressure was measured.

Vav2/3^ko mouse [4] = assay: Intraocular pressure after latanoprost eye drop, Example 4; settings: 8- to 9-week old Vav2/3^ko mouse; 3 μL 0.01%/PBS applied; three hours later; vs PBS control
Method: For the 8- to 9-week old Vav2/3^ko mouse (No. 12), intraocular pressure was measured between 10 o'clock in the morning and noon by using a Tonometer. Then, 3 μL of latanoplast (0.01%/PBS, manufactured by Cayman Chemical) of a prostaglandin derivative as a therapeutic agent for glaucoma was applied and the intraocular pressure was measured again three hours later. As a control, a group administered only with PBS was prepared at the same time, and analysis was carried out based on Student's t-test (P<0.05). […] Therefore, it was confirmed that the mouse of the present invention is a useful model for evaluation of a therapeutic agent for glaucoma.

Vav2^ko mouse [5] = assay: Intraocular pressure after eye-drop administration, Example 5; settings: 7-week old Vav2^ko
Method: as §2

[6] = 3 μL eye-drop solution (timolol maleate 0.5%, dorzolamide hydrochloride 1%), two hours after application

## C[C@@H](N)[C@H]1CC[C@H](C(=O)Nc2ccncc2)CC1 [Y-27632]
Vav2/3^ko mouse [1]
  activity of reducing the intraocular pressure: did not show any activity of reducing the intraocular pressure
Vav2^ko mouse [2]
  activity of reducing the intraocular pressure: did not show any activity of reducing the intraocular pressure
Vav3^ko mouse
  activity of reducing the intraocular pressure: did not show any activity of reducing the intraocular pressure

## CCN[C@H]1C[C@H](C)S(=O)(=O)c2sc(S(N)(=O)=O)cc21 [dorzolamide hydrochloride]
Vav2/3^ko mouse [3]; [6]
  Ratio of effect on intraocular pressure: 20%

## CC(C)OC(=O)CCC/C=C\C[C@@H]1[C@@H](CC[C@@H](O)CCc2ccccc2)[C@H](O)C[C@@H]1O [latanoprost]
Vav2/3^ko mouse [4]
  intraocular pressure change: reduced
Vav2/3^ko mouse [3]; 7-week old Vav2/3^ko, 3 μL 0.005% solution to eye, three hours later, P<0.01
  intraocular pressure three hours after administration: 15.8±5.1 mmHg
Vav2/3^ko mouse [3]; 7-week old Vav2/3^ko, 3 μL 0.005% solution, twenty four hours after
  intraocular pressure twenty four hours after eye drop administration: came back to the high value which is the same as the one before the eye drop administration
Vav2/3^ko mouse [3]; 7-week old Vav2/3^ko, before eye drop of 3 μL 0.005% solution
  intraocular pressure before administration: 26.3±5.0 mmHg
Vav2/3^ko mouse [3]; 3 μL 0.005% latanoprost solution, three hours later
  Ratio of effect on intraocular pressure: about 40%
Vav2^ko mouse [5]; 3 μL 0.005% solution to eye, three hours later, P<0.01
  intraocular pressure three hours after administration: 14.5 mmHg
Vav2^ko mouse [5]; before eye drop of 3 μL 0.005% solution
  intraocular pressure before administration: 17.4 mmHg

## CC(C)(C)NC[C@H](O)COc1nsnc1N1CCOCC1 [timolol maleate]
Vav2/3^ko mouse [3]; [6]
  Ratio of effect on intraocular pressure: 15%
